Measurements: publication PMC8353398 (Frontiers in Pharmacology, 2021)

Legend:
rNEP = target: T1, rNEP (Rattus norvegicus, UniProt P07861); assay: Peptide stability, cleavage assay with purified rat neprilysin; format: in vitro ADME; conditions: purified rat NEP (final around 50 nM), 5 µL of 1 mM peptide in about 105 µL; 100 mM Tris-HCl pH 7.4, 100 mM NaCl, 10 µM ZnCl2; 37°C, 300 rpm; sampled 5-120 min; UPLC-MS SIM; repeated 3-5 times
T1 construct: purchased Sino Biological (Beijing, China)
T1 sequence (P07861 1-750): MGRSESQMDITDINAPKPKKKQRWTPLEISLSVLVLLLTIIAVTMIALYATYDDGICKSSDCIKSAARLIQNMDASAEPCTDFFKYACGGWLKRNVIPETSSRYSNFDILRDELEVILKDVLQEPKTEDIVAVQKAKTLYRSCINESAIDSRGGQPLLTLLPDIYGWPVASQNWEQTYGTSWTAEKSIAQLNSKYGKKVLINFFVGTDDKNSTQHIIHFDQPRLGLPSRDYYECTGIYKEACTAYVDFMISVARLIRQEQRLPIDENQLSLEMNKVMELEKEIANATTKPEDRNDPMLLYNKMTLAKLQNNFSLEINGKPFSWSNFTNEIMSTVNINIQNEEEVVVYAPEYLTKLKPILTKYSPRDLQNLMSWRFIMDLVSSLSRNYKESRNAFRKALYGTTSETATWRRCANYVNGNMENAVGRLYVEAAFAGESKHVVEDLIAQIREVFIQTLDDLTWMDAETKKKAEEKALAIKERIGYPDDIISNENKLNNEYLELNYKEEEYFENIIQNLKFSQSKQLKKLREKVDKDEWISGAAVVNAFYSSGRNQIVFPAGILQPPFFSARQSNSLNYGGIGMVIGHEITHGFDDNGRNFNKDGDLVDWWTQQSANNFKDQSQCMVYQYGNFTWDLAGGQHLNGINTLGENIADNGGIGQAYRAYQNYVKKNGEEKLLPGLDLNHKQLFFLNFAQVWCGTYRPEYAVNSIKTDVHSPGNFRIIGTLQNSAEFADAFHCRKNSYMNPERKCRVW
Protocol: (§1) Rat enzymes rACE2 and rNEP were purchased from Sino Biological (Beijing, China) while rACE was obtained from EMD Millipore (Burlington, MA, United States). Enzymes were dissolved in milli-Q water (at 1 μM for rACE2/rNEP and 1.65 μM for rACE), aliquoted and stored at -80°C, as recommended by suppliers. […] Before adding the enzyme, the blank sample (t = 0 min) was prepared by removing 10 μL of this mixture and quenched with 10 μL of EDTA 0.5 M. To initiate the enzymatic reaction, 5 μL of enzyme (1 μM or 1.65 μM) was added to the mixture (final enzyme concentration around 50 nM or 82 nM). This mixture was kept in an incubator at 37°C equipped with an orbital shaker (300 rpm). Ten μL was sampled at 5, 10, 20, 60, and 120 min from this mixture, and quenched with 10 μL EDTA 0.5 M (prepared in milli-Q water and filtered) to inactivate the enzyme. […] First analyses (t = 0 min, t = 120 min) scanned m/z from 300-1200 to evaluate if peptides are cleaved and peptide fragments will be detected. After identifying the m/z of peptides and fragments, peptides were quantified using single ion mode (SIM). […] Angiotensin II was used as reference substrate in the assay with rACE2 and rNEP and angiotensin I was used as reference substrate in the assay with rACE. Experiments were repeated 3-5 times.

rACE2 = target: T2, rACE2 (Rattus norvegicus, UniProt Q5EGZ1); assay: Peptide stability, cleavage assay with purified rat ACE2; format: in vitro ADME; conditions: purified rat ACE2 (final around 50 nM), 5 µL of 1 mM peptide in about 105 µL; 100 mM Tris-HCl pH 7.4, 100 mM NaCl, 10 µM ZnCl2; 37°C, 300 rpm; sampled 5-120 min; UPLC-MS SIM; repeated 3-5 times
T2 construct: purchased Sino Biological (Beijing, China)
Protocol: as §1

[1] = system: spontaneously hypertensive rats (SHR); assay: Quantitative RT-PCR of pro-fibrotic and RAAS genes in heart and kidneys of treated SHR rats; format: in vivo, rat; conditions: high-salt diet, 10 nmol/kg/hr 6-week infusion, qRT-PCR, Rpl30 reporter
Protocol: Total RNA was extracted from heart and kidneys using RNeasy Mini kits (Qiagen) according to the manufacturer’s protocol. iScript Reverse Transcription Supermix (Bio-Rad) was used to prepare cDNA from 1 µg of total RNA in 20 µL. Real-time PCR was performed on technical duplicates with cDNA diluted 30x in nuclease-free water and using SsoAdvanced™ Universal SYBR® Green Supermix (Bio-Rad) in a Mastercycler® ep RealPlex (Eppendorf). The Ribosomal protein L30 (Rpl30) of heart or kidney was used as a reporter gene and fold changes were obtained using the 2(-ΔΔCt) method ([Livak and Schmittgen, 2001]). Data were then normalized to SHR rats receiving a standard chow diet containing 0.3% of NaCl.

[2] = system: adult male Sprague-Dawley rats; conditions: cecal-ligation puncture sepsis, 10 nmol/kg/hr, ref Coquerel et al., 2017; cited from earlier work
From the text: The final peptide was cleaved fr ...

[3] = system: spontaneously hypertensive rats (SHR); assay: Invasive hemodynamics and echocardiography after 6-week infusion in SHR rats; conditions: for Diastolic AP / Mean AP / Systolic AP: pressure catheter
Protocol: Male spontaneously hypertensive rats (SHR) and normotensive Wistar-Kyoto (WKY) rats were purchased from Charles River Laboratories (Kingston, ON, Canada) and maintained in a temperature-controlled room with a 12 h light/dark cycle at the animal facility of the Université de Sherbrooke. All animals were randomized with unique identification number into the different groups tested to maintain experimenter blinding. The study included six distinct SHR experimental groups (Table 1). Three groups received a standard rat chow diet containing 0.3% of NaCl (Charles River, ON, Canada) while the other three groups were fed a rat diet containing 8% of NaCl for 6 weeks (Research Diets, NJ, United States). Once a week, urine output and water intake were measured over 24 h using metabolic cages following 3 days of acclimatization. After 6 weeks of different salt intake regimens, the rats were anesthetized with 2% isoflurane for echocardiographic and hemodynamic measurements. Subsequently, blood samples were collected into tubes containing K2-EDTA and centrifuged at 2000 g for 10 min at 4°C before storing the plasma at −80°C. Plasma and urinary concentrations of sodium were determined by a vitros 750 XRC analyser (Johnson-Johnson Clinical Diagnostics; Rochester, NY). OCT-embedded sections of heart (7 µm) were generated and collagen fibers visualized by Masson’s trichrome staining. Immunohistochemistry stained slides were captured by an automated Hamamatsu Nanozoomer 2.0RS slide scanner (Hamamatsu Photonics). Heart and kidneys were also harvested, snap frozen in liquid nitrogen and stored at −80°C for mRNA expression analysis. All animal procedures were approved by our institutional ethical committee (protocol #2017–2115), in compliance with the policies and directives of the Canadian Council on Animal Care and with the ARRIVE guidelines.
Briefly, 2-chlorotrityl chloride resin (2-CTC, 120 mg) was loaded with Fmoc-L-Phe-OH (0.85 mmol/g). Fmoc protecting group was removed by treating the resin with a 20% piperidine solution. The coupling steps were carried out using [hexafluorophosphate of O-(7-azabenzotriazol-1-yl)-1,1,3,3-tetramethyluronium] (HATU, 5 equiv), amino acid (5 equiv) and DIPEA (5 equiv). The final peptide was cleaved from resin using a cocktail of trifluoroacetic acid (TFA)/triisopropylsilane (TIPS)/ethanedithiol (EDT)/water (92.5/2.5/2.5/2.5) and purified by preparative HPLC (ACE5 C18 column 250 × 21.2 mm, 5 μm spherical particle size). […] Finally, peptide was purified by preparative HPLC.
Transthoracic echocardiography was performed under isoflurane anesthesia (2%; […]; Baxter) with the Vevo 3,100 ultrasound apparatus using a MX250 transducer (FUJIFILM VisualSonics, ON, Canada). A short axis view of the left ventricle (LV) was obtained at the level of the papillary muscle and the M-mode tracing was recorded. LV End-Diastolic and End-Systolic Diameters (LVEDD; LVESD) were measured in order to calculate the fractional shortening (FS). Stroke volume was next calculated in order to assess Cardiac Output (CO) and Cardiac Index (CI). Pulse propagation velocity (PPV) was determined by ultrasound measurements of the abdominal aorta using EKV-image acquisition and analyzed with Vevo-Vasc software (FUJIFILM VisualSonics, ON, Canada). For invasive hemodynamic measurements, rats were intubated under isoflurane anesthesia (2%; […]; Baxter, IL, United States) and ventilated (SAR-1000, CWE). The right carotid artery was then cannulated with a pressure catheter (1.9F, Transonic, NY, United States) and advanced into the LV to record end-systolic and end-diastolic pressures.

rACE = assay: Peptide stability, cleavage assay with purified rat ACE; format: in vitro ADME; conditions: purified rat ACE (final around 82 nM), 5 µL of 1 mM peptide in about 105 µL; 100 mM Tris-HCl pH 7.4, 100 mM NaCl, 10 µM ZnCl2; 37°C, 300 rpm; sampled 5-120 min; UPLC-MS SIM; repeated 3-5 times
Protocol: as §1

[4] = SHR, high-salt diet (8% NaCl), 10 nmol/kg/hr s.c. infusion 6 weeks, mean ± SEM, n = 6
[5] = SHR, high-salt diet, 10 nmol/kg/hr s.c. infusion 6 weeks, echocardiography, mean ± SEM, n = 6
[6] = SHR, normal-salt diet (0.3% NaCl), 10 nmol/kg/hr s.c. infusion 6 weeks, mean ± SEM, n = 5
[7] = SHR, normal-salt diet, 10 nmol/kg/hr s.c. infusion 6 weeks, echocardiography, mean ± SEM, n = 5

T2 sequence (Q5EGZ1 18-805): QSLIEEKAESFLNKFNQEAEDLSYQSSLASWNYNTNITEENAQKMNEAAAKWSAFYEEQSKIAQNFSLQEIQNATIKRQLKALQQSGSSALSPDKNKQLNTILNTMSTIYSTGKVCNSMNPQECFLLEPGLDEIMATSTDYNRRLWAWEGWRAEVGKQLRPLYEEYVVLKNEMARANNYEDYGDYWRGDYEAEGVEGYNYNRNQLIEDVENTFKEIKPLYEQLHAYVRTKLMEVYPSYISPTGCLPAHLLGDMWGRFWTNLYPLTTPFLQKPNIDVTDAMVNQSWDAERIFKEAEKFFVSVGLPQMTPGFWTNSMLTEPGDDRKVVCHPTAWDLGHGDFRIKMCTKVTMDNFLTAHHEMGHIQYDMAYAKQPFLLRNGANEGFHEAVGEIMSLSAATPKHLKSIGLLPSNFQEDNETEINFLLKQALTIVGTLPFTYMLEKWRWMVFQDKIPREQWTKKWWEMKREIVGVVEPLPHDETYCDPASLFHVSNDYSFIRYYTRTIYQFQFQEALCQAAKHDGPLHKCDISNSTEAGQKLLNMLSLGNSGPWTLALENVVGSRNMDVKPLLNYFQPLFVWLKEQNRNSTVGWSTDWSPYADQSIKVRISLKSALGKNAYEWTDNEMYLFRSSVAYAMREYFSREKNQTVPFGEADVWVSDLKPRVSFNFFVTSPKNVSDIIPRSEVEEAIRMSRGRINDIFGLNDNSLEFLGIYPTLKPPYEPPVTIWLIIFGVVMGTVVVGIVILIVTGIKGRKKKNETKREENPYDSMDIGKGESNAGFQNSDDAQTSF

For CSCC[C@H](NC(=O)[C@@H]1CCCN1C(=O)CNC(=O)[C@H](CCCCN)NC(=O)[C@H](Cc1cnc[nH]1)NC(=O)[C@H](CO)NC(=O)[C@H](CC(C)C)NC(=O)[C@H](CCCNC(=N)N)NC(=O)[C@@H]1CCCN1C(=O)[C@H](CCCNC(=N)N)NC(=O)[C@@H]1CCC(=O)N1)C(=O)N1CCC[C@H]1C(=O)N[C@@H](Cc1ccccc1)C(=O)O [Ape13, [Pyr^1]-Apelin-13], the “Cleavage by neprilysin within 2 h” value (rNEP) was “rapidly and fully hydrolyzed”, the “Cleavage by ACE2 within 2 h” value (rACE2) was “rapidly and fully hydrolyzed” and the “Expression of pro-fibrotic Col1a, Acta1 and Tgfb2 genes in kidneys” value [1] was “only reduced the Tgfb2 mRNA level”. For the same compound, the Survival [2] was “improved the survival”, the “Effect on cardiovascular damage caused by hypertension per se” value ([3]; SHR on normal-salt intake compared to normotensive WKY, chronic treatment 6 weeks) was “does not prevent or reverse” and the “Effect on hypertension induced by a high-salt diet” value ([3]; SHR, high-salt diet (8% NaCl), 10 nmol/kg/hr continuous 6-week infusion) was “no significant effect”. The Weight [3, 4] was 339 ± 10 g, the “Diastolic AP” value [3, 4] was 131 ± 17 mmHg and the “Mean AP” value [3, 4] was 152 ± 19 mmHg. The “Systolic AP” value [3, 4] was 194 ± 23 mmHg, the “AWTS (anterior wall thickness during systole)” value [3, 5] was 2.4 ± 0.1 mm and the “FS (fractional shortening)” value [3, 5] was 37.6 ± 3.3%. For the same compound, the “HR (heart rate)” value [3, 5] was 348 ± 12 bpm, the “LVEDD (left ventricular end diastolic diameter)” value [3, 5] was 7.2 ± 0.1 mm and the “LVESD (left ventricular end systolic diameter)” value [3, 5] was 4.5 ± 0.3 mm. For the same compound, the “PWTS (posterior wall thickness during systole)” value [3, 5] was 2.6 ± 0.1 mm, the Weight [3, 6] was 321 ± 5 g and the “Diastolic AP” value [3, 6] was 125 ± 12 mmHg. The “Mean AP” value [3, 6] was 143 ± 14 mmHg, the “Systolic AP” value [3, 6] was 179 ± 19 mmHg and the “APPV (aortic pulse propagation velocity)” value [3, 7] was 4.5 ± 0.4 m/s. The “AWTS (anterior wall thickness during systole)” value [3, 7] was 2.3 ± 0.1 mm, the “FS (fractional shortening)” value [3, 7] was 39.8 ± 1.1% and the “HR (heart rate)” value [3, 7] was 372 ± 4 bpm. For the same compound, the “LVEDD (left ventricular end diastolic diameter)” value [3, 7] was 6.3 ± 0.4 mm, the “LVESD (left ventricular end systolic diameter)” value [3, 7] was 3.8 ± 0.3 mm and the “PWTS (posterior wall thickness during systole)” value [3, 7] was 2.3 ± 0.1 mm. For the same compound, the “Cleavage by ACE within 2 h” value (rACE) was “only partially”.
